Measured values reported in the supplement of paper PMC10307832.

Experiments:
Experiment in all cases: relative viability (nuclei count vs DMSO), 5 days (fraction); higher = more cells survive
Quizartinib + Vorinostat = compound: CC(C)(C)c1cc(NC(=O)Nc2ccc(-c3cn4c(n3)sc3cc(OCCN5CCOCC5)ccc34)cc2)no1 [Quizartinib] + O=C(CCCCCCC(=O)Nc1ccccc1)NO [Vorinostat] (partner 1 µM)
Outline: (§1)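 For relative viability, nuclei counts in treated wells were divided by those in vehicle wells. Lung cancer cell lines had been pin-tool dosed in 1536-well plates the day after seeding and cultured for 5 days, then fixed and stained in one step (final 0.05% Triton X-100, 1% formaldehyde, 1 ug/ml Hoechst) and imaged at 4×. Doses were one drug alone or a fixed anchor-drug dose plus five library-drug doses (not always all listed) in √10 steps, and values are duplicate-plate medians.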

YM155 + Alpelisib = compound: COCC[n+]1c2c(n(Cc3cnccn3)c1C)C(=O)c1ccccc1C2=O [YM155] + Cc1nc(NC(=O)N2CCC[C@H]2C(N)=O)sc1-c1ccnc(C(C)(C)C(F)(F)F)c1 [Alpelisib] (partner 2 µM)
Outline: as §1

Quizartinib + Decitabine = compound: CC(C)(C)c1cc(NC(=O)Nc2ccc(-c3cn4c(n3)sc3cc(OCCN5CCOCC5)ccc34)cc2)no1 [Quizartinib] + Nc1ncn([C@H]2C[C@H](O)[C@@H](CO)O2)c(=O)n1 [Decitabine] (partner 2 µM)
Outline: as §1

YM155 + Lapatinib = compound: COCC[n+]1c2c(n(Cc3cnccn3)c1C)C(=O)c1ccccc1C2=O [YM155] + CS(=O)(=O)CCNCc1ccc(-c2ccc3ncnc(Nc4ccc(OCc5cccc(F)c5)c(Cl)c4)c3c2)o1 [Lapatinib] (partner 2 µM)
Outline: as §1

Row | Cell Line | relative viability (Quizartinib + Vorinostat; first compound 0.001 µM) | relative viability (Quizartinib + Vorinostat; first compound 0.003162 µM) | relative viability (Quizartinib + Vorinostat; first compound 0.01 µM) | relative viability (Quizartinib + Vorinostat; first compound 0.03162 µM) | relative viability (Quizartinib + Vorinostat; first compound 0.1 µM) | relative viability (YM155 + Alpelisib; first compound 0.006325 µM) | relative viability (YM155 + Alpelisib; first compound 0.02 µM) | relative viability (YM155 + Alpelisib; first compound 0.06325 µM) | relative viability (Quizartinib + Decitabine; first compound 0.001 µM) | relative viability (Quizartinib + Decitabine; first compound 0.003162 µM) | relative viability (Quizartinib + Decitabine; first compound 0.01 µM) | relative viability (Quizartinib + Decitabine; first compound 0.03162 µM) | relative viability (Quizartinib + Decitabine; first compound 0.1 µM) | relative viability (YM155 + Lapatinib; first compound 0.006325 µM) | relative viability (YM155 + Lapatinib; first compound 0.02 µM) | relative viability (YM155 + Lapatinib; first compound 0.06325 µM) | relative viability (YM155 + Alpelisib; first compound 0.002 µM) | relative viability (YM155 + Lapatinib; first compound 0.002 µM)
1 | NCI-H1793 | 0.642 | 0.888 | 0.762 | 0.809 | 0.881 | 0.601 | 0.659 | 0.565 | 0.543 | 0.404 | 0.534 | 0.534 | 0.466 | 0.584 | 0.606 | 0.479 | – | –
2 | NCI-H1915 | 0.55 | 0.442 | 0.49 | 0.551 | 0.562 | 1.01 | 1.08 | 0.975 | 0.23 | 0.252 | 0.279 | 0.263 | 0.267 | 0.946 | 0.918 | 0.784 | 1.06 | 0.968
3 | NCI-H1944 | 0.448 | 0.579 | 0.465 | 0.532 | 0.588 | 0.756 | 0.803 | 0.905 | 0.38 | 0.389 | 0.499 | 0.419 | 0.399 | 0.724 | 0.767 | 0.82 | 0.83 | 0.842
4 | NCI-H1975 | 0.669 | 0.695 | 0.745 | 0.705 | 0.721 | 0.665 | 0.581 | 0.549 | 0.361 | 0.368 | 0.632 | 0.379 | 0.358 | 0.774 | 0.856 | 0.175 | 0.627 | 0.701
5 | NCI-H1993 | 0.68 | 0.76 | 0.939 | 0.726 | 0.725 | 0.726 | 0.673 | 0.657 | 0.564 | 0.673 | 0.624 | 0.632 | 0.615 | 0.736 | 0.682 | 0.757 | 0.691 | 0.81
6 | NCI-H2009 | 0.673 | 0.697 | 0.652 | 0.696 | 0.761 | 1.14 | 1.11 | 0.504 | 0.408 | 0.295 | 0.396 | 0.373 | 0.443 | 0.893 | 0.946 | 0.119 | 1.2 | 0.888
7 | NCI-H2023 | 0.61 | 0.493 | 0.762 | – | 0.772 | 0.671 | 0.594 | 0.156 | 0.22 | 0.198 | 0.266 | 0.157 | 0.214 | 0.827 | 0.867 | 0.49 | 0.589 | 0.884
8 | NCI-H2085 | 0.694 | 0.784 | 0.791 | 0.796 | 0.733 | 0.833 | 0.731 | 0.559 | 0.521 | 0.536 | 0.58 | 0.544 | 0.583 | 0.752 | 0.614 | 0.315 | 0.955 | 0.746
9 | NCI-H2087 | 0.751 | 0.705 | 0.676 | 0.384 | 0.73 | 1.06 | 1.03 | 0.822 | 0.257 | 0.238 | 0.332 | 0.249 | 0.287 | 1.01 | 1.12 | 0.708 | 0.903 | 1.26
10 | NCI-H2126 | 0.621 | 0.789 | 0.711 | 0.816 | 0.841 | 0.76 | 0.77 | 0.802 | 0.623 | 0.519 | 0.693 | 0.557 | 0.592 | 0.788 | 0.726 | 0.783 | 0.754 | 0.768
11 | NCI-H2170 | 0.745 | 0.803 | 0.808 | 0.89 | 0.867 | 0.855 | 0.889 | 0.877 | 0.424 | 0.466 | 0.468 | 0.578 | 0.44 | 0.261 | 0.291 | 0.235 | 0.866 | 0.261
12 | NCI-H2347 | 0.544 | 0.647 | 0.715 | 0.522 | 0.603 | 0.896 | 0.987 | 0.67 | 0.578 | 0.586 | 0.65 | 0.619 | 0.59 | 0.914 | 0.997 | 0.598 | 1.01 | 0.917
13 | NCI-H2405 | 0.943 | 0.967 | 0.763 | 0.902 | 1.17 | 0.593 | 0.826 | 0.345 | 0.723 | 0.72 | 0.789 | 0.737 | 0.87 | 0.816 | 0.786 | 0.34 | 0.826 | 1.03
14 | NCI-H3122 | 0.89 | 0.799 | 0.915 | 1 | 0.994 | 0.665 | 0.751 | 0.82 | 0.382 | 0.354 | 0.524 | 0.459 | 0.417 | 0.997 | 1.01 | 1.08 | 0.67 | 1
15 | PC-3 [JPC-3] | 0.758 | 0.889 | 0.55 | 0.596 | 0.912 | 1.02 | 1.07 | 0.972 | 0.837 | 0.843 | 0.841 | 0.862 | 0.831 | 0.455 | 0.437 | 0.455 | 1.02 | 0.455
